Values quoted from earlier work as cited in patent US8828934B2, “Mnk kinase homologous proteins involved in the regulation of energy homeostasis and organelle metabolism” (Boehringer Ingelheim International GmbH, priority 2001, dated 2014).

Assays:
[1] = not cytotoxic up to this concentration
[2] = test system: Mnk2 (Mnk2a or Mnk2b) or Mnk1; settings: compound added to cell culture cells transfected with Mnk2 (Mnk2a or Mnk2b) or Mnk1

SMILES: Nc1ncnc2n[nH]c(Nc3ccc(F)cc3)c12 [CGP57380]
- concentration up to which not cytotoxic [1]: > 30 µM
- reduction in phosphorylated eIF4E [2]: strong reduction in phosphorylated eIF4E
